Structures can show the parent of a compound that is named as a salt.
Key:
[1] = test system: Bovine aorta endothelial cells; experiment: Imaging of nitric oxide in cells; type: cell-based
Method: Bovine aorta endothelial cells were cultured on an imaging dish. The culture broth was changed to DMEM medium (supplemented with 0.2% DMSO) containing DAR-4M AM (10 μM) prepared in Example 5, and incubated at 37° C. for 30 minutes to load DAR-4M AM on the cells. The cells were washed, and the culture broth was changed again to DMEM medium not containing DAR-4M AM. After incubation at 37° C. for 1 hour, imaging was performed. The cells were examined with a fluorescence microscope equipped with an excitation filter (520 to 550 nm), a dichromic mirror (565 nm), and a barrier filter (580 nm, long pass). The measurement was performed in a warm box kept at 37° C. Imaging interval was set to be 10 seconds, and images captured by a cooled charge-coupled device camera were recorded and analyzed by an image analyzer. The results in the figure are shown with averaged change of relative fluorescence intensity of arbitrary seven cells based on the fluorescence intensity at the time of the start of the measurement. The fluorescence intensity was increased by stimulation with bradykinin (FIG. 3(A)), but the fluorescence intensity was not increased in the presence of a nitric oxide synthetase inhibitor (1 mM L-NAME) (FIG. 3(B)).

SMILES | uptake into the cells ([1]; 10 μM in DMEM medium, 37° C., 30 minutes) | fluorescence intensity in the presence of a nitric oxide synthetase inhibitor ([1]; 1 mM L-NAME, cells loaded with 10 μM) | fluorescence intensity on stimulation with bradykinin ([1]; cells loaded with 10 μM, 37° C., 30 minutes, average of seven cells) | melting point | reaction with nitric oxide in the cells ([1]; DAR-4M produced in the cells from DAR-4M AM)
CNc1ccc(-c2c3ccc(N(C)C)cc3[o+]c3cc(N(C)C)ccc23)c(C(=O)OCOC(C)=O)c1N.[I-] [DAR-4M AM, 3,6-bis(dimethylamino)-9-[2-acetoxymethoxycarbonyl-3-amino-4-(N-methylamino)phenyl]xanthylium iodide] | taken into the cells | not increased | increased | 177 to 178 °C | –
CNc1ccc(-c2c3ccc(N(C)C)cc3[o+]c3cc(N(C)C)ccc23)c(C(=O)[O-])c1N [DAR-4M, 3,6-bis(dimethylamino)-9-[3-amino-4-(N-methylamino)-2-carboxyphenyl]xanthylium intramolecular salt] | – | – | – | – | specifically reacted with nitric oxide
CCN(CC)c1ccc2c(-c3ccc(NC)c(N)c3C(=O)OCOC(C)=O)c3ccc(N(CC)CC)cc3[o+]c2c1.[I-] [DAR-M AM, 3,6-bis(diethylamino)-9-[2-acetoxymethoxycarbonyl-3-amino-4-(N-methylamino)phenyl]xanthylium iodide] | – | – | – | 147 to 150 °C | –

— US20100330685A1, “DIAMINORHODAMINE DERIVATIVE” (SEKISUI MEDICAL CO., LTD., priority 2000, published 2010)
